From patent US20180051284A1, “INHIBITORS OF MIR-17-92 CLUSTER FOR ANTI-TUMOR ACTIVITY IN MULTIPLE MYELOMA AND OTHER MALIGNANCIES” (priority 2014, published 2018)
l = locked nucleic acid (LNA); d = 2'-deoxy (DNA)

Columns and labels:
NCI-H929 cells = assay: Flow cytometry of 7-AAD stained cells after transfection; format: cell-based, Human; conditions: transfection 25 nM, as compared to RNase-free water
Protocol: (§1) 3×10^5 cells were transfected using Neon Transfection System (Invitrogen, Calif.,U.S.), (2 pulses at 1150, 30ms). The transfection efficiency evaluated by flow-cytometric analysis relative to a FAM dye—labeled anti-miR—negative control reached 85% to 90%.
(§2) 7-aminoactinomycin was used to evaluate cell viability. The staining was performed according to manufacturer's instructions.

[1] = tested on: CD138+ primary MM cells from bone marrow aspirates of myeloma patients; assay: Cell viability (7-AAD) of primary myeloma cells after gymnotic exposure; format: cell-based, Human; conditions: 6 days gymnotic exposure, 2.5, 5 or 10 μM; cultured with HS-5 stromal cells
Protocol: (§3) Following informed consent approved by our University Hospital Ethical Commitee, CD138+cells were isolated from the BM aspirates of both Monoclonal gammopathy of undetermined significance (MGUS) and myeloma patients by Ficoll-Hypaque density gradient sedimentation followed by antibody-mediated positive selection using anti-CD138 magnetic activated cell separation microbeads (Miltenyi Biotech, Gladbach, Germany). Purity of immunoselected cells were assessed by flow-cytometric analysis using a phycoerythrin-conjugated CD138 monoclonal antibody by standard procedures.
as §2
CD138+malignant plasma cells derived from bone marrow aspirates of 11 myeloma patients were cultured in presence of human stromal HS-5 cells.

U266 cells = assay: U266 orthotopic model of human MM (IVIS); format: in vivo, mice; conditions: I.P. 2 mg/kg at day 1-4-8-15-22; compared to controls
Excerpt: Male CB-17 severe combined immunodeficient (SCID) mice (6- to 8-weeks old; Harlan Laboratories, Inc., Indianapolis) were housed and monitored in our Animal Research Facility. All experimental procedures and protocols had been approved by the Institutional Ethical Committee (Magna Graecia University) and conducted according to protocols approved by the National Directorate of Veterinary Services (Italy). In accordance with institutional guidelines, mice were sacrificed when tumors reached 2 cm in diameter or in the event of paralysis or major compromise, to prevent unnecessary suffering. […] Mice were also inoculated with 5×10^6 luciferase gene-marked U266, AMO-1, AMO-1/abzb, treatments were performed intraperitoneally (i.p.), and tumor volume were measured by IVIS Lumina II.
The in vivo activity of gapmer_06 was also evaluate in a orthotopic model of human MM using U266 cells, to explore the efficacy in relation to the microenvironment. […] Tumor growth was monitored using IVIS LUMINA II Imaging System. […] Engraftment was determined by sacrificing mice after 10 weeks and analyzing bone marrow for luciferase gene-marked U266 cells. […] Mice were treated I.P. with gapmer_06 at concentration of 2 mg/kg at day 1-4-8-15-22, and serum shulL-6R levels were serially determined as a marker of tumor growth.

INA-6 cells = assay: INA-6 SCID-hu model, serum shuIL-6R; format: in vivo, mice; conditions: I.P. 2 mg/kg at day 1-4-8-15-22; compared to controls
Protocol: The SCID-hu model was performed implanting human fetal long bone grafts sc into SCID mice (SCID-hu). Four weeks following bone implantation, 2.5×10^6 INA-6 multiple myeloma cells were injected directly into the human bone implant. Because INA-6 cells release soluble human IL-6 receptor (shuIL-6R), we used this marker to monitor tumor growth in SCID-hu mice.
Mouse sera were serially monitored for shulL-6R levels by ELISA (Quantikine […]; R&D Systems). Mice developed detectable serum shuIL-6R ˜4 weeks following INA-6 cell injection and then were […]. Three days after the last injection, blood samples were collected and analyzed (R&D Systems).
The in vivo activity of gapmer_06 was also evaluate in a orthotopic model of human MM using U266 cells, to explore the efficacy in relation to the microenvironment. Orthotopic murine model was performed by the use of NOD/SCID mice intravenously injected with luciferase gene-marked U266 cells. Tumor growth was monitored using IVIS LUMINA II Imaging System. […] Engraftment was determined by sacrificing mice after 10 weeks and analyzing bone marrow for luciferase gene-marked U266 cells. […] Mice were treated I.P. with gapmer_06 at concentration of 2 mg/kg at day 1-4-8-15-22, and serum shulL-6R levels were serially determined as a marker of tumor growth.

MM cell lines = assay: CCK-8 cell growth analysis after gymnotic exposure; format: cell-based, Human; conditions: six days gymnotic exposure, 100 nM to 20 μM; ten MM cell lines; units printed inside the value (nM lower, μM upper); read-out: IC50 values by CCK-8 assay, range over MM cell lines
Protocol: Cells were seeded at low plating density in order to reach confluence on the final day of the experiments (day 6). Cell number at plating ranged from 0.5 to 2.5×10^3 in 96-well plates, from 2.5 to 10×10^3 in 12-well plates and from 1 to 3×10^4 in 6-well plates.
The LNA/DNA Gapmers were used at concentrations ranging from 0.1 to 20 μM.
(§4) Cells were seeded in 100 μL (suspension cell lines) or 50 μL (adherent cell lines) of culture medium at a density ranging from 0,5 to 2,5×10^3 cells per well. Survival was evaluated by both Cell Counting Kit-8 colorimetric assay (CCK-8, Dojindo Molecular Technologies, Japan) and CellTiter-Glo Luminescent Cell Viability Assay (Promega Madison, Wis., USA). Assays were performed according to the manufacturer's instructions. The optical density (OD) was evaluated at wave length of 450 nm. Both OD and luminescence were recorded with the GloMax-multi detection system (Promega, Madison, Wis., USA).

[2] = tested on: CD138+ plasma cells derived from MGUS patients; assay: Cell viability (7-AAD) of MGUS plasma cells after gymnotic exposure; format: cell-based, Human; conditions: 6 days gymnotic exposure, 5 μM
Protocol: as §3, §2

[3] = tested on: RPMI-8226, KMS-12-BM and NCI-H929 MM cells; assay: CCK-8 cell growth assay after transfection; format: cell-based, Human; conditions: transfection with 25 nM
Protocol: as §1, §4

Substance: gapmer_06: LNA/DNA gapmer, SEQ ID 4 (14 mer): +T*+A*+C*T*T*G*C*T*T*G*G*+C*+T*+T; + LNA, * phosphorothioate (antisense TACTTGCTTGGCTT; sugars from the 5' end l3 d8 l3, all phosphorothioate, methylation of C not given here)
- reduction of live cells (7-AAD) (NCI-H929 cells): 20%
- dead myeloma cells (7-AAD staining) [1]: significant increase of dead myeloma cells
- tumor growth (IVIS) (U266 cells): significant tumor-growth inhibition
- tumor growth (serum shuIL-6R levels) (INA-6 cells): significant tumor-growth inhibition
- IC50 (MM cell lines): 500 to 8000 nM
- cell viability (7-AAD) [2]: unaffected
- biological effect on cell growth (CCK-8) compared with single miRNA inhibitors for miR-17/18a/19a/19b/20a/92a [3]: strongest biological effects
- cell growth inhibition (CCK-8 assay) ([3]; up to 96 hours, compared among the eight gapmers): strongest cell growth inhibition
